# How the values were obtained:
# ear vessels of the mice = assay: In vivo microscopy of ear vessels: FITC-dextran leakage and vascular diameter after histamine; set-up: species or system mouse
# Protocol: To visualize the ear vessels of the mice, 70 kDa fluorescein isothiocyanate-dextran (10 mg/kg, manufactured by Sigma-Aldrich) was injected intravenously. Then, immediately after the administration of fluorescein isothiocyanate-dextran, 5,6-DiHETE (0.1 μg) was administered by instillation (percutaneously administered) as a pretreatment, and this group of mice was designated as a “5,6-DiHETE-administered group.” As a control group, a group of mice not administered with 5,6-DiHETE was designated as a “[…]-administered group”. Then, 15 minutes after the administration by instillation, histamine (400 μg) was administered by instillation (percutaneously administered) into the ventral surface of the ears for both the groups. Next, the mice were placed on the stage of a microscope confocal microscope (ECLIPSE Ti with C1 confocal system, manufactured by Nikon Corporation), and their body temperatures were maintained at 37° C. Dextran leakage and vascular diameter in the ears were monitored every minute in a period from 0 to 30 minutes after the administration of histamine using EZ-C1 Free Viewer (manufactured by Nikon Corporation), and the dextran leakage, artery diameter and vein diameter were quantified according to the description of Omori, K. et al., British Journal of Pharmacology, 171:4879-4889 (2014). It is known that smooth muscle contraction reduces the downstream blood flow and limits the vascular leakage, whereas smooth muscle relaxation (increase of vascular diameter) increases the blood flow, thereby leading to vascular leakage.
# [1] = test system: DSS-induced colitis model mice; assay: DSS-induced colitis: histologic score and colon edema (wet/dry weight ratio); assay type: in vivo, mouse (C57BL/6); conditions: Day 14; 50 μg/kg/day intraperitoneally on Days 9, 11 and 13
# Excerpt: C57BL/6 strain mice (male, 8 to 12 weeks old) were fed with water containing 2% dextran sodium sulfate (manufactured by MP Bio, hereinafter sometimes referred to as “DSS”) for 4 days to prepare colitis model mice (hereinafter, sometimes referred to as “colitis group” in Examples 7 to 10). The mice taken with DSS for 4 days were fed with normal water from Day 5. The DSS intake start date was defined as Day 1 of the test, and the day before the DSS intake start date was defined as Day 0 of the test. In addition, a group in which C57BL/6 strain mice (male, 8 to 12 weeks old) were fed with normal water was defined as a “healthy group” (the same applies to Examples 8 to 10).
# To investigate the role of 5,6-DiHETE in the healing phase, the colitis model mice prepared in Example 7(1) were intraperitoneally injected with 5,6-DiHETE (manufactured by Cayman Chemical) (50 μg/kg/day) or HC-067047 (manufactured by Cayman Chemical) (1 mg/kg/day) on Days 9, 11 and 13 of the test (hereinafter, sometimes referred to as “5,6-DiHETE-administered group” and “HC-067047-administered group,” respectively, in Examples 9 and 10). HC-067047 is known to inhibit an increase of calcium ion concentration in endothelial cells.
# Distal colon sections on Day 14 of the test in the healthy group, colitis group, 5,6-DiHETE-administered group and HC-067047-administered group were fixed in 4% paraformaldehyde for 24 hours, embedded in paraffin and cut into 2 μm-thick sections. Hematoxylin staining and eosin staining of these sections were performed according to a conventional method. The histologic score was then decided according to the description of Kruschewski M. et al., Digestive Diseases and Sciences, 46: 2336-2343 (2001) to evaluate the colitis severity.
# The wet/dry weight ratio was used as an index of colon edema (Rachmilewitz D. et al., Gastroenterology, 97: 326-337(1989)). Specifically, the distal colon was collected, and the wet weight was measured. The distal colon was then dried at 60 C for 24 hours, and, thereafter, the dry weight was measured.
# [2] = test system: eNOS phosphorylation in HUVECs; assay: Histamine-induced eNOS phosphorylation (Western blot); assay type: cell-based, human; conditions: pretreatment 0.1 μM, 15 minutes; histamine 10 μM, 5 minutes
# Protocol: In Examples 4 to 6, human umbilical vein endothelial cells (hereinafter, sometimes referred to as “HUVECs”, manufactured by Lonza) were cultured in EGM-2 (manufactured by Lonza K.K.). These cells (passages 4 to 9) were used for experiments after 4-hour starvation in EBM-2 (manufactured by Lonza K.K.) containing 2% FBS.
# To the plates on which the HUVECs were cultured, 5,6-DiHETE was added so as to attain 100 nM, and, 15 minutes after the addition, histamine was added so as to attain 10 μM. Then, in order to measure the protein masses of phosphorylated eNOS and eNOS, 5 minutes after the administration of histamine, the HUVECs were lysed with a modified lysis buffer (50 mM Tris-HCl (pH 7.4), 0.1 mM EDTA, 0.1 mM EGTA, 1% NP-40 substitute, 0.1% SDS, 0.1% deoxycholic acid, 50 mM NaF, 1 mM Na3VO4, and 10 mM β-glycerophosphate). […] Bands were detected and quantified using an Odyssey system (manufactured by LI-COR Biosciences) (FIG. 5B). Specifically, the bands of phosphorylated eNOS and eNOS were detected by scanning (800 nm) with the Odyssey system, and their intensity (band brightness) was quantified. The phosphorylation level of eNOS (ratio of phosphorylated eNOS to eNOS) was quantified and evaluated by a relative value obtained by dividing the band brightness of phosphorylated eNOS by the band brightness of eNOS. […]
# [3] = 0.1 μg pretreatment 15 minutes before histamine 400 μg
compound,measurement,setting,value
"CC/C=C\C/C=C\C/C=C\C/C=C\C[C@@H](O)[C@@H](O)CCCC(=O)O (racemic) [5,6-DiHETE, (±) 5,6-dihydroxy-8Z,11Z,14Z,17Z-eicosatetraenoic acid]",histamine-induced increase of vein diameter,ear vessels of the mice; [3],not inhibited
same,mean fluorescence intensity of FITC-dextran extravasation vs histamine-administered group,ear vessels of the mice; [3],significantly decreased
same,artery diameter as compared with arteries nonstimulated with histamine,ear vessels of the mice; 0.1 μg pretreatment by instillation 15 minutes before histamine 400 μg,132±15%
same,"colon edema, wet/dry weight ratio",[1],5.2±0.2
same,histologic score of colitis,[1],3.3±0.5
same,histamine-induced phosphorylation of eNOS (serine 1177),[2],significantly reduced histamine-induced phosphorylation of eNOS

# From patent US12285434B2, “Therapeutic, preventive, or improvement agent for inflammatory disease and allergic disease” (The University of Tokyo, priority 2018, dated 2025)
